Reference: BindingDB's records for doi:10.1016/j.bioorg.2015.05.010 (Universiti Teknologi Mara (Uitm), 2015)

Biological target: T1, Beta-glucuronidase (Bos taurus, UniProt A3KMY8)
T1 sequence (A3KMY8 whole entry): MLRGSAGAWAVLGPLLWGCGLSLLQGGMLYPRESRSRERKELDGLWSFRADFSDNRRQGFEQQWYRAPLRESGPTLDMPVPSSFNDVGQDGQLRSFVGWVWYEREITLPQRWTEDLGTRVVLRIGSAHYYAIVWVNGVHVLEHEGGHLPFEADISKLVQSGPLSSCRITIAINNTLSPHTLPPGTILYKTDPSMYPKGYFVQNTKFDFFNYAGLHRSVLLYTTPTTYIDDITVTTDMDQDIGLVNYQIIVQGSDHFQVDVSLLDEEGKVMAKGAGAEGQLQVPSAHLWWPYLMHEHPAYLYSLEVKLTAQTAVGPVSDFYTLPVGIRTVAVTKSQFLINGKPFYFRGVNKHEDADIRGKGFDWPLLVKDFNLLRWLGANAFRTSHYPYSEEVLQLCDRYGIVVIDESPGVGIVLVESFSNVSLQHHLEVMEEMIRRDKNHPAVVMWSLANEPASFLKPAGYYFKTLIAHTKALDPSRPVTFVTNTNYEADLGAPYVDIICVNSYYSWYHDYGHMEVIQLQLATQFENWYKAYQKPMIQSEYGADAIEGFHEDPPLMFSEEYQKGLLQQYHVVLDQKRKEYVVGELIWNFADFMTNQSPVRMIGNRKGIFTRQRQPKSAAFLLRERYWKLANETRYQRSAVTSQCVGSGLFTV
Test: Beta-glucuronidase Inhibition Assay
Experimental: The total reaction volume was 250 µL. […] The reaction mixture contained 185 µL of 0.1 M acetate buffer, 5 µL of test compound solution, 10 µL of enzyme solution was incubated at 37 °C for 30 min. […] All assays were run in triplicate.

First: Oc1cccc(-c2nc3c(Cl)cc(Cl)cc3[nH]2)c1 [3-(4,6-dichloro-1H-benzo[d]imidazol-2-yl)phenol (2)]
Second: Oc1ccc(-c2nc3c(Cl)cc(Cl)cc3[nH]2)cc1 [4-(4,6-dichloro-1H-benzo[d]imidazol-2-yl)phenol (3)]
The IC50 of the first is 2-fold higher: 28.4 µM for the first, 14.2 µM for the second. The second is the more potent here.

Compared with `Oc1ccc(-c2nc3c(Cl)cc(Cl)cc3[nH]2)cc1O` [4-(4,6-dichloro-1H-benzo[d]imidazol-2-yl)benzene-1,2-diol (5)], `COc1ccc(-c2nc3c(Cl)cc(Cl)cc3[nH]2)cc1O` [5-(4,6-dichloro-1H-benzo[d]imidazol-2-yl)-2-methoxyphenol (9)] is 1.9-fold higher in IC50: 46.1 µM for the first, 86.3 µM for the second.

Going from `Oc1ccccc1-c1nc2cc(Cl)cc(Cl)c2[nH]1` [2-(4,6-dichloro-1H-benzo[d]imidazol-2-yl)phenol (1)] to `Oc1cccc(-c2nc3c(Cl)cc(Cl)cc3[nH]2)c1O` [3-(4,6-dichloro-1H-benzo[d]imidazol-2-yl)benzene-1,2-diol (4)], the IC50 rises from 4.48 µM to 60.5 µM (14-fold).

`Oc1ccc(O)c(-c2nc3c(Cl)cc(Cl)cc3[nH]2)c1` [2-(4,6-dichloro-1H-benzo[d]imidazol-2-yl)benzene-1,4-diol (7)] and `Oc1ccc(-c2nc3c(Cl)cc(Cl)cc3[nH]2)c(O)c1` [4-(4,6-dichloro-1H-benzo[d]imidazol-2-yl)benzene-1,3-diol (6)] are within 1.5-fold of each other in IC50: 11.5 µM for the first, 14.2 µM for the second.

Compared with `Clc1ccc(-c2nc3c(Cl)cc(Cl)cc3[nH]2)cc1` [4,6-Dichloro-2-(4-chlorophenyl)-1H-benzo[d]imidazole (12)], `Clc1cc(Cl)c2nc(-c3ccccn3)[nH]c2c1` [4,6-dichloro-2-(pyridin-2-yl)-1H-benzo[d]imidazole (19)] is 2.4-fold higher in IC50: 36.1 µM for the first, 86.1 µM for the second.

`COc1ccc(O)c(-c2nc3c(Cl)cc(Cl)cc3[nH]2)c1` [2-(4,6-dichloro-1H-benzo[d]imidazol-2-yl)-4-methoxyphenol (8)] showed an IC50 of 15.5 µM.
